Measurements from patent publication US8912188B2, “Substituted quinoxaline carboxylic acids for the inhibition of PASK” (BioEnergenix, LLC, priority 2011, dated 2014).

These compounds were tested against T1, PASK (Invitrogen) (Homo sapiens, UniProt Q96RG2) (assay: PAS Kinase FRET Assay). Conditions: PAS kinase TR-FRET assay (665 nm/615 nm), 2 hours at 25° C.; read-out: IC50 Kinase Domain.
T1 construct: IC50 Kinase Domain; purchased Invitrogen
T1 sequence (Q96RG2 999-1251 limits assumed): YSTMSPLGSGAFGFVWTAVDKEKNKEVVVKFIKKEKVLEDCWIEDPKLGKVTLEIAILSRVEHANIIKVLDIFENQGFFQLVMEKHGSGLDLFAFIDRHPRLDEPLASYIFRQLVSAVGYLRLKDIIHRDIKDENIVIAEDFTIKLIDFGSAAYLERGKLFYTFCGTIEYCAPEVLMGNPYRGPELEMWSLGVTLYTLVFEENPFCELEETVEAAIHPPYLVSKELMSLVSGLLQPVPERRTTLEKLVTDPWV
Format: biochemical
Text: Biochemical Assay for hPASK Activity
The aim of the FRET assay is to determine the inhibition potential of test compounds on targeted kinase. This assay platform provides a homogenous screening method for measuring kinase activity by quantitating the amount of phospho-substrate in solution following a kinase reaction.
In the presence of kinase and ATP, the Ulight-peptide is phosphorylated and captured by an anti-phospho-substrate antibody, which brings the Eu chelate donor and Ulight acceptor dyes into close proximity.
Titration of kinase at 1 mM ATP was achieved via the following protocol. […] The contents of the plate were incubated at RT for 1 h. The reaction was stopped by adding 5 μl of stop solution to each test well followed by mixing and incubation at RT for 10 minutes. 5 μl of detection mix (detection antibody diluted in detection buffer) was added; the contents of the plate were mixed and then incubated in the dark for 1 hour at RT. […] The results were graphed to calculate the EC50.
Titration of ATP at the EC50 concentration of kinase to determine ATP Km,app. was performed using the following method. […] The contents of the plate were and incubated at RT for 1 h. The reaction was stopped by adding 5 μl of stop solution to each test well followed by mixing and incubation at RT for 10 minutes. […] (detection antibody diluted in detection buffer) was added; the contents of the plate were mixed and then incubated in the dark for 1 hour at RT. […] The results were graphed to calculate the EC50 as the ATP Km,app.
Compound screening was done via the following method. 10 mM stock solution of test compound in DMSO was prepared by dissolving test compound in DMSO at RT for 1 hour, and then sonicating at 100% output for 8 minutes. If compound is not soluble under this condition, it was diluted to 3 mM. Kinase reaction buffer was prepared containing 10 mM MgCl2, 50 mM HEPES, 1 mM EGTA, 0.01% TWEEN-20, 2 mM DTT. […] As a positive control, 2.5 μl of positive compound was added to assay wells, and 2.5 μl of DMSO to assay wells as vehicle control. Kinase solution was prepared in reaction buffer at 2× final assay concentration. Kinase solution (5 μl) was added to each well of the assay plate. The substrate and ATP solution was prepared in kinase reaction buffer at 4× final assay concentration. The kinase reaction was started by adding 2.5 μl of substrate+ATP mix solution to each well of the assay plate. The plate is mixed on a plate shaker; then covered and allowed to react for 2 hours in the dark at 25° C. without shaking. The reaction was stopped by adding 5 μl of stop solution to each test well followed by mixing and incubation at RT for 10 minutes in the dark. 5 μl of detection mix (detection antibody diluted in detection buffer) was added; the contents of the plate were mixed and then incubated in the dark for 1 hour at RT.
`Cc1ccccc1N(C)c1nc2cc(C(=O)O)ccc2nc1-c1ccc(F)cc1` [Example 109, 2-(4-Fluorophenyl)-3-(methyl(o-tolyl)amino)quinoxaline-6-carboxylic acid] was tested, and the IC50 was < 10 µM. `CC(C)(C)Nc1nc2cc(C(=O)O)ccc2nc1-c1ccc(F)cc1` [Example 110, 3-(tert-Butylamino)-2-(4-fluorophenyl)quinoxaline-6-carboxylic acid] was tested, and the IC50 was < 10 µM. For `C[C@H]1CNCCN1c1nc2cc(C(=O)O)ccc2nc1-c1ccc(F)cc1` [Example 114, 2-(4-Fluorophenyl)-3-[(2S)-2-methylpiperazin-1-yl]quinoxaline-6-carboxylic acid], the IC50 was < 10 µM. With `Cc1cc(F)ccc1-c1nc2ccc(C(=O)O)cc2nc1N1CCC[C@@H]1C` [Example 117, (S)-2-(4-Fluoro-2-methylphenyl)-3-(2-methylpyrrolidin-1-yl)quinoxaline-6-carboxylic acid] the IC50 was < 10 µM. In the case of `Cc1cc(F)ccc1-c1nc2ccc(C(=O)O)cc2nc1N(C)C(C)C` [Example 118, 2-(4-Fluoro-2-methylphenyl)-3-(isopropyl(methyl)amino)quinoxaline-6-carboxylic acid], the IC50 is reported as < 10 µM. In the case of `CC(C)N(C)c1nc2cc(C(=O)O)ccc2nc1-c1ccc(C(N)=O)cc1` [Example 119, 2-(4-Carbamoylphenyl)-3-(isopropyl(methyl)amino)quinoxaline-6-carboxylic acid], the IC50 is reported as < 10 µM. In the case of `COc1cc2nc(-c3ccc(F)cc3)c(N(C)C(C)C)nc2cc1C(=O)O` [Example 122, 2-(4-Fluorophenyl)-7-methoxy-3-[methyl(propan-2-yl)amino]quinoxaline-6-carboxylic acid], the IC50 is reported as > 10 µM. With `CC(C)N(C)c1nc2cc(C(=O)O)c(F)cc2nc1-c1ccc(F)cc1` [Example 123, 7-Fluoro-2-(4-fluorophenyl)-3-[methyl(propan-2-yl)amino]quinoxaline-6-carboxylic acid] the IC50 was < 10 µM. For `CN(CC(F)(F)F)c1nc2cc(C(=O)O)ccc2nc1-c1ccc(F)cc1` [Example 124, 2-(4-Fluorophenyl)-3-[methyl(2,2,2-trifluoroethyl)amino]quinoxaline-6-carboxylic acid], the IC50 was < 10 µM. `CN(c1nc2cc(C(=O)O)ccc2nc1-c1ccc(F)cc1)[C@H]1CC[C@H](O)CC1` [Example 125, 2-(4-Fluorophenyl)-3-(((1r,4r)-4-hydroxycyclohexyl)(methyl)amino)quinoxaline-6-carboxylic acid] was tested, and the IC50 was < 10 µM. For `CN[C@H]1CC[C@H](N(C)c2nc3cc(C(=O)O)ccc3nc2-c2ccc(F)cc2)CC1` [Example 126, 2-(4-Fluorophenyl)-3-(methyl((1r,4r)-4-(methylamino)cyclohexyl)amino)quinoxaline-6-carboxylic acid], the IC50 was < 10 µM. For `CC(=O)N[C@H]1CC[C@H](N(C)c2nc3cc(C(=O)O)ccc3nc2-c2ccc(F)cc2)CC1` [Example 127, 3-(((1r,4r)-4-Acetamidocyclohexyl)(methyl)amino)-2-(4-fluorophenyl)quinoxaline-6-carboxylic acid], the IC50 was < 10 µM. `CC(=O)N1CCN(c2nc3cc(C(=O)O)ccc3nc2-c2ccc(F)cc2)CC1` [Example 128, 3-(4-Acetylpiperazin-1-yl)-2-(4-fluorophenyl)quinoxaline-6-carboxylic acid] was tested, and the IC50 was < 10 µM. `O=C(O)c1ccc2nc(-c3ccc(F)cc3)c(N3CCN(C(=O)c4ccccc4)CC3)nc2c1` [Example 129, 3-(4-Benzoylpiperazin-1-yl)-2-(4-fluorophenyl)quinoxaline-6-carboxylic acid] was tested, and the IC50 was < 10 µM. With `CS(=O)(=O)N1CCN(c2nc3cc(C(=O)O)ccc3nc2-c2ccc(F)cc2)CC1` [Example 130, 2-(4-Fluorophenyl)-3-(4-(methylsulfonyl)piperazin-1-yl)quinoxaline-6-carboxylic acid] the IC50 was < 10 µM. `O=C(O)c1ccc2nc(-c3ccc(F)cc3)c(N3CCC(c4ccccn4)CC3)nc2c1` [Example 131, 2-(4-Fluorophenyl)-3-[4-(pyridin-2-yl)piperidin-1-yl]quinoxaline-6-carboxylic acid] was tested, and the IC50 was < 10 µM. In the case of `C[C@H]1CCCN1c1nc2cc(C(=O)O)c(O)cc2nc1-c1ccc(F)cc1` [Example 132, (S)-2-(4-Fluorophenyl)-7-hydroxy-3-(2-methylpyrrolidin-1-yl)quinoxaline-6-carboxylic acid], the IC50 is reported as < 10 µM. For `CN(Cc1ccccc1)c1nc2cc(C(=O)O)ccc2nc1-c1ccc(F)cc1` [Example 133, 3-[Benzyl(methyl)amino]-2-(4-fluorophenyl)quinoxaline-6-carboxylic acid], the IC50 was < 10 µM. In the case of `CN(Cc1ccccn1)c1nc2cc(C(=O)O)ccc2nc1-c1ccc(F)cc1` [Example 134, 2-(4-Fluorophenyl)-3-[methyl(pyridin-2-ylmethyl)amino]quinoxaline-6-carboxylic acid], the IC50 is reported as < 10 µM. For `CC(C)N(C)c1nc2cc(C(=O)O)ccc2nc1-c1ccc(C(F)(F)F)cc1` [Example 136, 3-(Isopropyl(methyl)amino)-2-(4-(trifluoromethyl)phenyl)quinoxaline-6-carboxylic acid], the IC50 was < 10 µM. For `CCN1CCC(N(C)c2nc3cc(C(=O)O)ccc3nc2-c2ccc(F)cc2)CC1` [Example 137, 3-[(1-Ethylpiperidin-4-yl)(methyl)amino]-2-(4-fluorophenyl)quinoxaline-6-carboxylic acid], the IC50 was < 10 µM. `CCN1CCN(c2nc3cc(C(=O)O)ccc3nc2-c2ccc(F)cc2)[C@@H](C)C1` [Example 138, (S)-3-(4-Ethyl-2-methylpiperazin-1-yl)-2-(4-fluorophenyl)quinoxaline-6-carboxylic acid] was tested, and the IC50 was < 10 µM. In the case of `CCCN(CC)c1nc2cc(C(=O)O)ccc2nc1-c1ccc(F)cc1` [Example 139, 3-[Ethyl(propyl)amino]-2-(4-fluorophenyl)quinoxaline-6-carboxylic acid], the IC50 is reported as < 10 µM. In the case of `CC(C)CN(C)c1nc2cc(C(=O)O)ccc2nc1-c1ccc(F)cc1` [Example 141, 2-(4-Fluorophenyl)-3-(isobutyl(methyl)amino)quinoxaline-6-carboxylic acid], the IC50 is reported as < 10 µM. With `CCC1CCCCN1c1nc2cc(C(=O)O)ccc2nc1-c1ccc(F)cc1` (stereo not shown) [Example 142, 3-(2-Ethylpiperidin-1-yl)-2-(4-fluorophenyl)quinoxaline-6-carboxylic acid] the IC50 was < 10 µM. For `C[C@@H](c1ccccc1)N(C)c1nc2cc(C(=O)O)ccc2nc1-c1ccc(F)cc1` [Example 143, (S)-2-(4-Fluorophenyl)-3-(methyl(1-phenylethyl)amino)quinoxaline-6-carboxylic acid], the IC50 was < 10 µM. `O=C(O)c1ccc2nc(-c3ccc(F)cc3)c(N3CCCC3)nc2c1` [Example 144, 2-(4-Fluorophenyl)-3-(pyrrolidin-1-yl)quinoxaline-6-carboxylic acid] was tested, and the IC50 was < 10 µM. For `O=C(O)c1ccc2nc(-c3ccc(F)cc3)c(N3CCC3)nc2c1` [Example 145, 3-(Azetidin-1-yl)-2-(4-fluorophenyl)quinoxaline-6-carboxylic acid], the IC50 was < 10 µM.
